Non-standard residues stand in square brackets, D forms with d. Residues, ends and D or L forms follow the SMILES beside them. Nle = CCCC[C@H](N)C(=O)O
Experiments:
[1] = tested on: calpain activity in HeLa cells; experiment: Live cell imaging of calpain activity in HeLa cells; type: cell-based; conditions: for visualization of calpain activity in HeLa cells (fluorescence image): 30 minutes with 10 KM of probe, confocal microscope
Description: The calpain activity in HeLa cells was visualized by the following procedure using Ac-LLY-HMRG.
(a) HeLa cells were incubated for one hour at 37° C. using FBS (BD Pharmingen stain buffer)-free DMEM (Dulbecco's modified Eagle's medium), and also incubated for 30 minutes by 10 KM of Ac-LLY-HMRG. Fluorescence images and transmission images were taken thereafter using a confocal microscope.
The calpain activity in HeLa cells was visualized by the following procedure using Ac-LM-HMRG.
(a) HeLa cells were incubated for one hour at 37° C. using FBS (BD Pharmingen stain buffer)-free DMEM (Dulbecco's modified Eagle's medium), (b) 1 KM ALLN (calpain selective inhibitor)-containing DMEM (FBS (−)), (c) 2 KM ALLN-containing DMEM (FBS (−)), and (d) 5 KM ALLN-containing DMEM (FBS (−)), and also incubated for 30 minutes by 10 KM of Ac-LM-HMRG. Fluorescence images and transmission images were taken thereafter using a confocal microscope. The results are shown in FIGS. 4a-4d (the left side of each drawing is the fluorescence image; the right side is the transmission image). The scale bar in the drawing is 50 μm.

[2] = Measurement of the optical properties; type: physicochemical; conditions: 0.2 M sodium phosphate buffer of pH 2
Description: The optochemical properties of Ac-LLY-HMRG and Ac-LM-HMRG were measured in 0.2 M sodium phosphate buffer of pH 2.

[3] = biological target: T1, calpain-1 from human erythrocytes (Homo sapiens, UniProt P07384); experiment: In vitro enzyme assay using calpain (calpain 1); type: biochemical; conditions: probe 1 μM, 50 mM Tris buffer pH 7.4, 5 μM CaCl2, 25° C., excitation 495 nm, fluorescence 524 nm
T1 construct: calpain-1 from human erythrocytes; purchased 208713; host or cells: purified from human erythrocytes
T1 sequence (P07384 1-714): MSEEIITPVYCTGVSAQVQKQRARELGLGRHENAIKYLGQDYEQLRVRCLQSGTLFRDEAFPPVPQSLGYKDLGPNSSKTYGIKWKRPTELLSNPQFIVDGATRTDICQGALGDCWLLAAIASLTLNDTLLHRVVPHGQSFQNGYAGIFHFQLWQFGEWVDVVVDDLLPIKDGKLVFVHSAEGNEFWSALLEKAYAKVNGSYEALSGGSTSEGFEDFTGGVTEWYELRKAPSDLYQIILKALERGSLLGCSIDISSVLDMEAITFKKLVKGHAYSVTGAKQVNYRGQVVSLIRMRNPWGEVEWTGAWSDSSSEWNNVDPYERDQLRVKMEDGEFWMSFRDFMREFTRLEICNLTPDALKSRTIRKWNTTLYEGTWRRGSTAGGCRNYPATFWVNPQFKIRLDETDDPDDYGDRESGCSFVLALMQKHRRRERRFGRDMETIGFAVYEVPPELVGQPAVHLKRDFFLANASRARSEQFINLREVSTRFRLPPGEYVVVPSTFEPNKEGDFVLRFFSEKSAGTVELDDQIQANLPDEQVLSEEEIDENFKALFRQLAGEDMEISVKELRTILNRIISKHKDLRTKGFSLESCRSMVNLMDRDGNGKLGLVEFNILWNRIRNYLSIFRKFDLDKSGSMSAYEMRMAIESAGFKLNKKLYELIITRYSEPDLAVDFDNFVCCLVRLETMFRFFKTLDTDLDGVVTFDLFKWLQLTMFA
T1 sequence (P04632 1-268 partner): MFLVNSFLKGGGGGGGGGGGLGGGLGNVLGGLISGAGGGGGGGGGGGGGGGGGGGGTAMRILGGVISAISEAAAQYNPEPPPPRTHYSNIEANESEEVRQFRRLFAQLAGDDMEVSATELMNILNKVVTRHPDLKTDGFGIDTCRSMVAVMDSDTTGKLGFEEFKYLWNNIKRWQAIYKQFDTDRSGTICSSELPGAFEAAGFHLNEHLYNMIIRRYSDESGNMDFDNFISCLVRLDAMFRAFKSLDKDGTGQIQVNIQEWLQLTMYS
Description: (§1) A calpain enzyme addition assay was conducted in Tris buffer under the following conditions using a probe synthesized and designed by the above method. As a result, the absorption and fluorescence intensity of Ac-LLY-HMRG increased about two-fold due to the enzymatic reaction, and it was confirmed to function as a calpain probe. The results are shown in FIG. 1a (using calpain 1) and FIG. 1b (using calpain 2).
(§2) A quantity of 3 μL of a DMSO solution (1 mM) of the probe was dissolved in 3 mL of 50 mM Tris buffer (pH 7.4) (containing 5 μM of CaCl2 for calpain 1 and 500 μM of CaCl2 for calpain 2) (final probe concentration: 1 μM). […] The excitation wavelength was 495 nm, and the fluorescence wavelength was 524 nm. […]
(§3) A calpain enzyme addition assay was conducted in Tris buffer using a probe synthesized and designed by the above method. As a result, the absorption and fluorescence intensity of Ac-LM-HMRG increased about four-fold due to the enzymatic reaction with calpain 2, and it was confirmed to function as a calpain probe. […]
(§4) A quantity of 3 μL of a DMSO solution (1 mM) of the probe was dissolved in 3 mL of 50 mM Tris buffer (pH 7.4) (containing 5 μM of CaCl2 for calpain 1 and 500 μM of CaCl2 for calpain 2) (final probe concentration: 1 μM). […] The excitation wavelength was 495 nm, and the fluorescence wavelength was 524 nm.

[4] = tested on: calpain-2 from porcine kidney; experiment: In vitro enzyme assay using calpain (calpain 2); type: biochemical; conditions: probe 1 μM, 50 mM Tris buffer pH 7.4, 500 μM CaCl2, 25° C., excitation 495 nm, fluorescence 524 nm
Description: as §1, §2, §3, §4

[5] = tested on: rat NMDA injury model; experiment: Rat NMDA injury model, fundus photography; type: in vivo, SD rats; conditions: Ac-LM-HMRG 2 mM, 2 μL to the eye
Description: SD rats were placed under general anesthesia using Nembutal. N-methyl-D-aspartic acid (NMDA) (10 mM, 2 μL) or PBS was administered to the eye. The animals were again placed under anesthesia by ketamine-xylazine mixture four hours later, and Ac-LM-HMRG (2 mM, 2 μL) was administered to the eye. The fundus was photographed by an F10 (Nidec confocal biomicroscope).
In FIGS. 5 and 6, locations indicated by an arrow show nerve cells stained by HMRG.

[6] = tested on: mouse NMDA injury model; experiment: Flat-mounted retinas with mouse NMDA injury model; type: in vivo, BL6/J mice; conditions: Ac-LM-HMRG 0.5 mM, 1 μL to the eye
Description: A study by mouse NMDA injury model was conducted with flat-mounted retinas. […] After one week, the mice were anesthetized by Nembutal, and 1 μL of 30 mM NMDA (PBS solution) or 1 μL of PBS was administered to the vitreous body in the eye. Two weeks later, the mice were again anesthetized by ketamine-xylazine, and Ac-LM-HMRG (0.5 mM, 1 μL, PBS solution) was administered to the eye. One hour after Ac-LM-HMRG administration, Sytox (registered trademark) Orange (for staining cells that have undergone cell death, […], 1 μL, PBS solution) (manufactured by Invitrogen) was administered to the vitreous body. Ten minutes later, the eyeball was removed, fixed for two hours by 4% paraformaldehyde (PFA), and flat-mounted retinas were prepared.

| Absmax [2] [nm] | Emmax [2] [nm] | Φn [2] | increase of absorption and fluorescence intensity due to the enzymatic reaction [3] | increase of absorption and fluorescence intensity due to the enzymatic reaction [4] | Structure (SMILES) | effect of inhibitor on fluorescence intensity within the cells ([1]; for one hour at 37° C., then 10 KM of Ac-LM-HMRG for 30 minutes) | visualization of calpain activity in HeLa cells (fluorescence image) [1] | staining of nerve cells in fundus photograph, NMDA group ([5]; NMDA-administered rats, 30, 60, and 90 minutes after administration) | staining of nerve cells in fundus photograph, PBS group ([5]; PBS-administered rats, after 30, 60 and 90 minutes) | staining of flat-mounted retina, NMDA group ([6]; NMDA group mice) | staining of flat-mounted retina, PBS group ([6]; PBS group mice) |
| --- | --- | --- | --- | --- | --- | --- | --- | --- | --- | --- | --- |
|  |  |  |  |  | CCCC[C@@H](C=O)NC(=O)[C@H](CC(C)C)NC(=O)[C@H](CC(C)C)NC(C)=O [ALLN, reference compound] (Ac-Leu-Leu-[Nle]-aldehyde) | decreased the fluorescence intensity within the cells |  |  |  |  |  |
| 470 | 526 | 0.19 | about two-fold | about two-fold | CSCC[C@H](NC(=O)[C@H](CC(C)C)NC(C)=O)C(=O)Nc1ccc2c(c1)Oc1cc(N)ccc1C21OCc2ccccc21 (stereo partly shown) [Ac-LLY-HMRG] |  | made it possible to monitor the calpain activity inside HeLa cells |  |  |  |  |
| 470 | 529 | 0.32 |  | about four-fold | CC(=O)N[C@@H](CC(C)C)C(=O)N[C@@H](CC(C)C)C(=O)N[C@@H](Cc1ccc(O)cc1)C(=O)Nc1ccc2c(c1)Oc1cc(N)ccc1C21OCc2ccccc21 (stereo partly shown) [Ac-LM-HMRG] |  | made it possible to monitor the calpain activity inside HeLa cells | nerve cells were clearly stained | nerve cells were only very slightly stained | calpain activity was detected | not found |
| 501 | 524 | 0.81 |  |  | N=c1ccc2c(-c3ccccc3CO)c3ccc(N)cc3oc-2c1 [HMRG, reference compound] |  |  |  |  |  |  |

Reference: patent publication US20180162871A1, “FLUORESCENT PROBE FOR DETECTING CALPAIN ACTIVITY” (The University of Tokyo, priority 2015, published 2018)
